Results as given in patent EP3041353B1, “COMPOSITIONS COMPRISING BACTERIOSTATIC AGENTS AND BRILLIANT BLUE G” (priority 2013, dated 2015).

How the values were obtained:
Assay in all cases: Bacteriostatic effect of Octenidin with BBG: turbidity after 24 h incubation
Format in all cases: cell-based
Parameters in all cases: key: +: Bakterienwachstum nach 24 h Inkubation; -: kein Bakterienwachstum nach 24 h Inkubation
Bacillus megaterium = system: Bacillus megaterium
Procedure: (§1) Zur Untersuchung des Einflusses von BBG auf die bakteriostatische Wirkung wurden Bakterien 24 h mit erfindungsgemäßen Zusammensetzungen, Benzalkoniumchlorid (BAK) und Octenidin (Oct) als Bakteriostatikum enthielten, inkubiert. Wenn sich die Inkubationsmischung trübte, wurde das als Bakterienwachstum interpretiert. Zum Vergleich wurde Brillantblau R (BBR) anstelle von BBG eingesetzt. Die Ergebnisse sind in den Tabellen 1-4 wiedergegeben. Tabelle 1: Einfluss von BBG und BBR auf die bakteriostatische Wirkung von BAK gegenüber Escherichia coli (E. coli), + = Bakterienwachstum nach 24 h Inkubation, - = kein Bakterienwachstum nach 24 h Inkubation, R = Brillantblau R (BBR), G = Brillantblau G (BBG).
(§2) Tabelle 4: Einfluss von BBG auf die bakteriostatische Wirkung von Octenidin (Oct) gegenüber Gram-positiven Bakterien., + = Bakterienwachstum nach 24 h Inkubation, - = kein Bakterienwachstum nach 24 h Inkubation, +/- = geringes Wachstum nach 24 h Inkubation, BBG = Brillantblau G.

Bacillus subtilis = system: Bacillus subtilis
Procedure: as §1, §2

[1] = system: Clavibacter michiganensis
Procedure: as §1, §2

Paenibacillus sp. = system: Paenibacillus sp.
Procedure: as §1, §2

[2] = system: Pseudomonas putida DSM 291
Procedure: as §1
Gram-negative Bakterien (hier E. coli) sind widerstandsfähiger als Gram-positive Bakterien (hier Bacillus sp.) und wachsen konzentrationsabhängig. […] Tabelle 3: Einfluss von BBG auf die bakteriostatische Wirkung von Octenidin (Oct) gegenüber Gram-negativen Bakterien., + = Bakterienwachstum nach 24 h Inkubation, - = kein Bakterienwachstum nach 24 h Inkubation, BBG = Brillantblau G.

CCOc1ccc(Nc2ccc(C(=C3C=CC(=[N+](CC)Cc4cccc(S(=O)(=O)[O-])c4)C=C3C)c3ccc(N(CC)Cc4cccc(S(=O)(=O)O)c4)cc3C)cc2)cc1 [BBG, Brillantblau G]
Bakterienwachstum nach 24 h Inkubation (Bacillus megaterium; 0,007% BBG + Octenidin 0,01%): - | Bakterienwachstum nach 24 h Inkubation (Bacillus megaterium; 0,007% BBG + Octenidin 0,002%): - | Bakterienwachstum nach 24 h Inkubation (Bacillus megaterium; 0,007% BBG + Octenidin 0,003%): - | Bakterienwachstum nach 24 h Inkubation (Bacillus megaterium; 0,007% BBG + Octenidin 0,005%): - | Bakterienwachstum nach 24 h Inkubation (Bacillus megaterium; 0,007% BBG + Octenidin 0,007%): - | Bakterienwachstum nach 24 h Inkubation (Bacillus megaterium; 0,007% BBG + Octenidin 0,009%): - | Bakterienwachstum nach 24 h Inkubation (Bacillus megaterium; 0,007% BBG, Octenidin 0%): + | Bakterienwachstum nach 24 h Inkubation (Bacillus megaterium; 0,015% BBG + Octenidin 0,01%): - | Bakterienwachstum nach 24 h Inkubation (Bacillus megaterium; 0,015% BBG + Octenidin 0,002%): + | Bakterienwachstum nach 24 h Inkubation (Bacillus megaterium; 0,015% BBG + Octenidin 0,005%): - | Bakterienwachstum nach 24 h Inkubation (Bacillus megaterium; 0,015% BBG + Octenidin 0,007%): - | Bakterienwachstum nach 24 h Inkubation (Bacillus megaterium; 0,015% BBG + Octenidin 0,009%): - | Bakterienwachstum nach 24 h Inkubation (Bacillus megaterium; 0,015% BBG, Octenidin 0%): + | Bakterienwachstum nach 24 h Inkubation (Bacillus megaterium; 0,030% BBG + Octenidin 0,01%): - | Bakterienwachstum nach 24 h Inkubation (Bacillus megaterium; 0,030% BBG + Octenidin 0,002%): + | Bakterienwachstum nach 24 h Inkubation (Bacillus megaterium; 0,030% BBG + Octenidin 0,003%): + | Bakterienwachstum nach 24 h Inkubation (Bacillus megaterium; 0,030% BBG + Octenidin 0,009%): - | Bakterienwachstum nach 24 h Inkubation (Bacillus megaterium; 0,030% BBG, Octenidin 0%): + | Bakterienwachstum nach 24 h Inkubation (Bacillus subtilis; 0,007% BBG + Octenidin 0,01%): - | Bakterienwachstum nach 24 h Inkubation (Bacillus subtilis; 0,007% BBG + Octenidin 0,002%): + | Bakterienwachstum nach 24 h Inkubation (Bacillus subtilis; 0,007% BBG + Octenidin 0,003%): - | Bakterienwachstum nach 24 h Inkubation (Bacillus subtilis; 0,007% BBG + Octenidin 0,005%): - | Bakterienwachstum nach 24 h Inkubation (Bacillus subtilis; 0,007% BBG + Octenidin 0,007%): - | Bakterienwachstum nach 24 h Inkubation (Bacillus subtilis; 0,007% BBG + Octenidin 0,009%): - | Bakterienwachstum nach 24 h Inkubation (Bacillus subtilis; 0,007% BBG, Octenidin 0%): + | Bakterienwachstum nach 24 h Inkubation (Bacillus subtilis; 0,015% BBG + Octenidin 0,01%): - | Bakterienwachstum nach 24 h Inkubation (Bacillus subtilis; 0,015% BBG + Octenidin 0,002%): + | Bakterienwachstum nach 24 h Inkubation (Bacillus subtilis; 0,015% BBG + Octenidin 0,003%): + | Bakterienwachstum nach 24 h Inkubation (Bacillus subtilis; 0,015% BBG + Octenidin 0,005%): - | Bakterienwachstum nach 24 h Inkubation (Bacillus subtilis; 0,015% BBG + Octenidin 0,007%): - | Bakterienwachstum nach 24 h Inkubation (Bacillus subtilis; 0,015% BBG + Octenidin 0,009%): - | Bakterienwachstum nach 24 h Inkubation (Bacillus subtilis; 0,015% BBG, Octenidin 0%): + | Bakterienwachstum nach 24 h Inkubation (Bacillus subtilis; 0,030% BBG + Octenidin 0,01%): - | Bakterienwachstum nach 24 h Inkubation (Bacillus subtilis; 0,030% BBG + Octenidin 0,002%): + | Bakterienwachstum nach 24 h Inkubation (Bacillus subtilis; 0,030% BBG + Octenidin 0,003%): + | Bakterienwachstum nach 24 h Inkubation (Bacillus subtilis; 0,030% BBG + Octenidin 0,005%): + | Bakterienwachstum nach 24 h Inkubation (Bacillus subtilis; 0,030% BBG + Octenidin 0,007%): + | Bakterienwachstum nach 24 h Inkubation (Bacillus subtilis; 0,030% BBG + Octenidin 0,009%): - | Bakterienwachstum nach 24 h Inkubation (Bacillus subtilis; 0,030% BBG, Octenidin 0%): + | Bakterienwachstum nach 24 h Inkubation ([1]; 0,007% BBG + Octenidin 0,01%): - | Bakterienwachstum nach 24 h Inkubation ([1]; 0,007% BBG + Octenidin 0,002%): + | Bakterienwachstum nach 24 h Inkubation ([1]; 0,007% BBG + Octenidin 0,003%): - | Bakterienwachstum nach 24 h Inkubation ([1]; 0,007% BBG + Octenidin 0,005%): - | Bakterienwachstum nach 24 h Inkubation ([1]; 0,007% BBG + Octenidin 0,007%): - | Bakterienwachstum nach 24 h Inkubation ([1]; 0,007% BBG + Octenidin 0,009%): - | Bakterienwachstum nach 24 h Inkubation ([1]; 0,007% BBG, Octenidin 0%): + | Bakterienwachstum nach 24 h Inkubation ([1]; 0,015% BBG + Octenidin 0,01%): - | Bakterienwachstum nach 24 h Inkubation ([1]; 0,015% BBG + Octenidin 0,002%): + | Bakterienwachstum nach 24 h Inkubation ([1]; 0,015% BBG + Octenidin 0,003%): + | Bakterienwachstum nach 24 h Inkubation ([1]; 0,015% BBG + Octenidin 0,005%): - | Bakterienwachstum nach 24 h Inkubation ([1]; 0,015% BBG + Octenidin 0,007%): - | Bakterienwachstum nach 24 h Inkubation ([1]; 0,015% BBG + Octenidin 0,009%): - | Bakterienwachstum nach 24 h Inkubation ([1]; 0,015% BBG, Octenidin 0%): + | Bakterienwachstum nach 24 h Inkubation ([1]; 0,030% BBG + Octenidin 0,01%): - | Bakterienwachstum nach 24 h Inkubation ([1]; 0,030% BBG + Octenidin 0,002%): + | Bakterienwachstum nach 24 h Inkubation ([1]; 0,030% BBG + Octenidin 0,003%): + | Bakterienwachstum nach 24 h Inkubation ([1]; 0,030% BBG + Octenidin 0,005%): + | Bakterienwachstum nach 24 h Inkubation ([1]; 0,030% BBG + Octenidin 0,007%): + | Bakterienwachstum nach 24 h Inkubation ([1]; 0,030% BBG + Octenidin 0,009%): - | Bakterienwachstum nach 24 h Inkubation ([1]; 0,030% BBG, Octenidin 0%): + | Bakterienwachstum nach 24 h Inkubation (Paenibacillus sp.; 0,007% BBG + Octenidin 0,01%): - | Bakterienwachstum nach 24 h Inkubation (Paenibacillus sp.; 0,007% BBG + Octenidin 0,002%): - | Bakterienwachstum nach 24 h Inkubation (Paenibacillus sp.; 0,007% BBG + Octenidin 0,003%): - | Bakterienwachstum nach 24 h Inkubation (Paenibacillus sp.; 0,007% BBG + Octenidin 0,005%): - | Bakterienwachstum nach 24 h Inkubation (Paenibacillus sp.; 0,007% BBG + Octenidin 0,007%): - | Bakterienwachstum nach 24 h Inkubation (Paenibacillus sp.; 0,007% BBG + Octenidin 0,009%): - | Bakterienwachstum nach 24 h Inkubation (Paenibacillus sp.; 0,007% BBG, Octenidin 0%): + | Bakterienwachstum nach 24 h Inkubation (Paenibacillus sp.; 0,015% BBG + Octenidin 0,01%): - | Bakterienwachstum nach 24 h Inkubation (Paenibacillus sp.; 0,015% BBG + Octenidin 0,002%): + | Bakterienwachstum nach 24 h Inkubation (Paenibacillus sp.; 0,015% BBG + Octenidin 0,003%): + | Bakterienwachstum nach 24 h Inkubation (Paenibacillus sp.; 0,015% BBG + Octenidin 0,005%): - | Bakterienwachstum nach 24 h Inkubation (Paenibacillus sp.; 0,015% BBG + Octenidin 0,007%): - | Bakterienwachstum nach 24 h Inkubation (Paenibacillus sp.; 0,015% BBG + Octenidin 0,009%): - | Bakterienwachstum nach 24 h Inkubation (Paenibacillus sp.; 0,015% BBG, Octenidin 0%): + | Bakterienwachstum nach 24 h Inkubation (Paenibacillus sp.; 0,030% BBG + Octenidin 0,01%): - | Bakterienwachstum nach 24 h Inkubation (Paenibacillus sp.; 0,030% BBG + Octenidin 0,002%): + | Bakterienwachstum nach 24 h Inkubation (Paenibacillus sp.; 0,030% BBG + Octenidin 0,003%): + | Bakterienwachstum nach 24 h Inkubation (Paenibacillus sp.; 0,030% BBG + Octenidin 0,005%): + | Bakterienwachstum nach 24 h Inkubation (Paenibacillus sp.; 0,030% BBG + Octenidin 0,007%): + | Bakterienwachstum nach 24 h Inkubation (Paenibacillus sp.; 0,030% BBG + Octenidin 0,009%): + | Bakterienwachstum nach 24 h Inkubation (Paenibacillus sp.; 0,030% BBG, Octenidin 0%): + | Bakterienwachstum nach 24 h Inkubation ([2]; 0,007% BBG + Octenidin 0,01%): - | Bakterienwachstum nach 24 h Inkubation ([2]; 0,007% BBG + Octenidin 0,002%): + | Bakterienwachstum nach 24 h Inkubation ([2]; 0,007% BBG + Octenidin 0,003%): - | Bakterienwachstum nach 24 h Inkubation ([2]; 0,007% BBG + Octenidin 0,005%): - | Bakterienwachstum nach 24 h Inkubation ([2]; 0,007% BBG + Octenidin 0,007%): - | Bakterienwachstum nach 24 h Inkubation ([2]; 0,007% BBG + Octenidin 0,009%): - | Bakterienwachstum nach 24 h Inkubation ([2]; 0,007% BBG, Octenidin 0%): + | Bakterienwachstum nach 24 h Inkubation ([2]; 0,015% BBG + Octenidin 0,01%): - | Bakterienwachstum nach 24 h Inkubation ([2]; 0,015% BBG + Octenidin 0,002%): + | Bakterienwachstum nach 24 h Inkubation ([2]; 0,015% BBG + Octenidin 0,003%): + | Bakterienwachstum nach 24 h Inkubation ([2]; 0,015% BBG + Octenidin 0,005%): + | Bakterienwachstum nach 24 h Inkubation ([2]; 0,015% BBG + Octenidin 0,007%): - | Bakterienwachstum nach 24 h Inkubation ([2]; 0,015% BBG + Octenidin 0,009%): - | Bakterienwachstum nach 24 h Inkubation ([2]; 0,015% BBG, Octenidin 0%): + | Bakterienwachstum nach 24 h Inkubation ([2]; 0,030% BBG + Octenidin 0,01%): + | Bakterienwachstum nach 24 h Inkubation ([2]; 0,030% BBG + Octenidin 0,002%): + | Bakterienwachstum nach 24 h Inkubation ([2]; 0,030% BBG + Octenidin 0,003%): + | Bakterienwachstum nach 24 h Inkubation ([2]; 0,030% BBG + Octenidin 0,005%): + | Bakterienwachstum nach 24 h Inkubation ([2]; 0,030% BBG + Octenidin 0,007%): + | Bakterienwachstum nach 24 h Inkubation ([2]; 0,030% BBG + Octenidin 0,009%): + | Bakterienwachstum nach 24 h Inkubation ([2]; 0,030% BBG, Octenidin 0%): +
